Experimental data from patent US11554124B2, “Hematopoiesis-enhancing agent” (priority 2018, dated 2023).

Legend:
[1] = tested on: BM erythroblast subset II; assay: RNA sequencing / RT-PCR of BM erythroblast subset II of treated mice; assay type: in vivo, mouse
Experimental: Total RNA was isolated by using the RNeasy kit (Qiagen) from the sorted sample of bone marrow subset II erythroblasts (PBS; n=4, CLEU; n=4). The quality of the isolated RNA ([…]) was checked using a 2100 bioanalyzer (Agilent), and 250 ng of the RNA was used as input for library preparation in accordance with the manufacturer's instructions using the TruSeq Stranded mRNA Library Prep Kit (Illumina). High-throughput sequencing (51 bp, single-ended) was performed using Hiseq2500 Rapid mode v2 (Illumina). Sequenced reads were mapped to the reference mouse genome (mm9) by using bowtie2 version 2.2.5 and tophat version 2.1.0, and then the abundances of transcripts were estimated by using cufflinks version 2.2.1. Gene expression levels were normalized to the average of fragments per kilobase of transcript per million mapped reads (FPKM) value. Individually expressed genes with FPKM>10 and CV<0.5 (under at least one of the two conditions) were used for further analysis (log2 FC<−0.5 or log2 FC>0.5, P<0.05 within each condition).
For the purpose of elucidating the mechanism of the maturation of erythroblasts induced by CLEU treatment, RNA sequencing analysis of BM erythroblast subset II was performed. […] According to previous reports which had shown the contributory role of CD163 and Apoe in erythropoiesis, up-regulation of CD163 and/or Apoe is necessary for proper use of heme and/or lipid membrane synthesis during the maturation of erythroblasts. […] Considering the fact that abnormalities in globin genes cause the maturation defects in erythroblasts in disorders such as thalassemia, up-regulation of these genes, on the other hand, could be the driving force for the final maturation stage of erythroblasts.

[2] = tested on: human cord blood CD34+ cells; assay: In vitro erythroid differentiation of human CD34+ umbilical cord blood cells; assay type: cell-based; settings: CLEU 2.5 mg/ml, differentiation medium 7 days
Experimental: Human CD34^+ umbilical cord blood cells were obtained from the Kanto Koshinetsu Block Blood Center (Tokyo, Japan). The use of cord blood samples for research purposes was approved by the Tohoku University Ethics Committee. The technical details of this method have been described previously. Briefly, CD34^+ umbilical cord blood cells were cultured in growth medium for 5 days, and subsequently, the cells (1×10^5/ml) were cultured in differentiation medium for 7 days. For treatment with CLEU, the concentration thereof was 2.5 mg/ml. As the growth medium, StemMACS HSC Expansion Media XF, human (MACS), supplemented with StemMACS HSC Expansion Cocktail, human (MACS) was used. As the differentiation medium, StemSpan SFEM (STEMCELL) supplemented with hSCF (100 ng/ml; Peprotech), hFLT3-L (33.3 ng/ml; Peprotech), hIL3 (13.3 ng/ml; Peprotech), hBMP4 (13.3 ng/ml; Peprotech), hEPO (2.67 IU/ml; Kyowa Kirin Co., Ltd.), and hydrocortisone (1 μM; Sigma) was used.
Finally, the effect of CLEU on in vitro erythroid cell differentiation conditions of human cord blood CD34^+ cells was investigated.

[3] = CLEU, subset II, Day 2, RT-PCR normalized to Actb

NC1(C(=O)O)CCCC1 [CLEU, cycloleucine]
number of genes identified as significantly up-regulated ([1]; CLEU, BM erythroblast subset II, Day 2, RNA sequencing, vs PBS): 72 genes
expression of Gata1, Tal1, and Klf1 ([1]; CLEU, BM erythroblast subset II, Day 2, vs PBS): significantly down-regulated
expression of Myb, Cited2 and H1f0 [1, 3]: significantly up-regulated
expression of hemoglobin-related genes, CD163 and Apoe (validation analysis) [1, 3]: significantly up-regulated
expression levels of several histone methyltransferase ([1]; CLEU, subset II, RNA sequencing): significantly down-regulated
expression of globin genes ([1]; CLEU-treated erythroblasts, subset II, Day 2): most heavily expressed
erythroid differentiation and maturation of human cord blood CD34+ cells [2]: induce not only erythroid differentiation but also maturation
